Test results from ChEMBL document CHEMBL5465560, “Selectivity Literature for EUbOPEN Chemogenomic Library” (2024).
Values belong to the compound of their own block, whether it stands above or below them.

Key:
[1] = target: Epidermal growth factor receptor (Homo sapiens, UniProt P00533); assay: Selectivity interaction (Enyzmatic assay) EUB0000601a EGFR
[2] = target: Serine/threonine-protein kinase PAK 1 (Homo sapiens) (UniProt Q13153); assay: Selectivity interaction (Ambit KINOMEscan and KiNATiv profiling in Jurkat cells) EUB0000090b PAK1; type: cell-based; conditions: at 1 µM
Chain of Serine/threonine-protein kinase PAK 1 (Homo sapiens) (Q13153 whole entry): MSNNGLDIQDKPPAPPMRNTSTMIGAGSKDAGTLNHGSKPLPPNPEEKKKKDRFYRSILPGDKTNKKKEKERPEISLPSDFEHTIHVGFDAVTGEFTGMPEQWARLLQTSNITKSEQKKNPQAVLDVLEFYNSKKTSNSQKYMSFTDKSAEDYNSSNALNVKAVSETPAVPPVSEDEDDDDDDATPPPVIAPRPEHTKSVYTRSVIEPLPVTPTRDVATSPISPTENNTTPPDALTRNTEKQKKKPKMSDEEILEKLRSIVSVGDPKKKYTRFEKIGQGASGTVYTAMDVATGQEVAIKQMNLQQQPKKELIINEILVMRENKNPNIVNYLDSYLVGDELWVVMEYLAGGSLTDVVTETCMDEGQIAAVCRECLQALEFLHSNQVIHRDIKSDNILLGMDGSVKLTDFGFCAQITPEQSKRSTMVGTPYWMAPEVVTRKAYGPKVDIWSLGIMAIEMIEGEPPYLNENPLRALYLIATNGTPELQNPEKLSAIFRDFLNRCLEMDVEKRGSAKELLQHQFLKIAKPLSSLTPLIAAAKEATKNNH

[3] = target: Protein arginine N-methyltransferase 5 (Homo sapiens, UniProt O14744); assay: Selectivity interaction (Transferase panel (protein, RNA, and DNA methyltransferases. and EP300 (acetyltransferase))) EUB0000270b PRMT5
Chain of Protein arginine N-methyltransferase 5 (O14744 whole entry): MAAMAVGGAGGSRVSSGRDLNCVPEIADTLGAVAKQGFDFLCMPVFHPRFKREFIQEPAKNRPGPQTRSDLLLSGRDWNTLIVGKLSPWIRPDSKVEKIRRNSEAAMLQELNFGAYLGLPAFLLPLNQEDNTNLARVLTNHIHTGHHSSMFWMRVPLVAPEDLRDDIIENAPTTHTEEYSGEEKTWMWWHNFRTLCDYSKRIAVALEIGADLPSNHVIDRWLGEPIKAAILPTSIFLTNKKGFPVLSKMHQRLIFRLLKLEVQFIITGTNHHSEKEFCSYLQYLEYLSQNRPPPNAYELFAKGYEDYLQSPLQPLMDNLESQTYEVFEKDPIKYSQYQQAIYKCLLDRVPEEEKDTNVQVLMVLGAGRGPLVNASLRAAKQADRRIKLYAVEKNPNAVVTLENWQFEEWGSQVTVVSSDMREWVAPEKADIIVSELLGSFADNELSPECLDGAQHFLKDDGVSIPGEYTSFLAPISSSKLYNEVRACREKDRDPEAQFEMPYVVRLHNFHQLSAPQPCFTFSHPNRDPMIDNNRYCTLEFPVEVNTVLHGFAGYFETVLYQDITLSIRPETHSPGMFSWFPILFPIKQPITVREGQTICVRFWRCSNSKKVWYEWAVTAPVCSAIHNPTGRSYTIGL

[4] = target: T1, Serine/threonine-protein kinase Nek8 (Homo sapiens) (UniProt Q86SG6); assay: Selectivity interaction (LanthaScreen Eu Kinase Binding Assay) EUB0001632a NEK8; conditions: at 10 µM
T1 sequence (whole entry): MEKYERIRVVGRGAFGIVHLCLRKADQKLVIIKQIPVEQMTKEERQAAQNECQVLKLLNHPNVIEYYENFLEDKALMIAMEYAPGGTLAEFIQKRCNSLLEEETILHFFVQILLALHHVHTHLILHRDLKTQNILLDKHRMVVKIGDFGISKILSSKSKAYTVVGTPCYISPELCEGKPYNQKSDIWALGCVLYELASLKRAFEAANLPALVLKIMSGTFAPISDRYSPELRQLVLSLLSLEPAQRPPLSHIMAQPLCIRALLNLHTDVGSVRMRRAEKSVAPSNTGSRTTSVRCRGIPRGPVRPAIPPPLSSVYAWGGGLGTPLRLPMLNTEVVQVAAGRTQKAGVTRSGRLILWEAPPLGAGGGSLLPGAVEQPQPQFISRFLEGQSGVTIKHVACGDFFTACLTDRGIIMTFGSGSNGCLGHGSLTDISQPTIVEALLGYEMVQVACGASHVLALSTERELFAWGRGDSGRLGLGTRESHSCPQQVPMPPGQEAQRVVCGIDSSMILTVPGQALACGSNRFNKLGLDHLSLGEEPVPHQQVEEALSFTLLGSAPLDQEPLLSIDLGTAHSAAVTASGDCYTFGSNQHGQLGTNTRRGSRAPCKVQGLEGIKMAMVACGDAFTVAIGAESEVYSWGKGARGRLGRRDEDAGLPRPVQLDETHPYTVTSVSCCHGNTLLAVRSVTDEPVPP

[5] = target: Tyrosine-protein kinase ABL2 (Homo sapiens, UniProt P42684); conditions: at 10 µM
Chain of Tyrosine-protein kinase ABL2 (P42684 whole entry, canonical isoform): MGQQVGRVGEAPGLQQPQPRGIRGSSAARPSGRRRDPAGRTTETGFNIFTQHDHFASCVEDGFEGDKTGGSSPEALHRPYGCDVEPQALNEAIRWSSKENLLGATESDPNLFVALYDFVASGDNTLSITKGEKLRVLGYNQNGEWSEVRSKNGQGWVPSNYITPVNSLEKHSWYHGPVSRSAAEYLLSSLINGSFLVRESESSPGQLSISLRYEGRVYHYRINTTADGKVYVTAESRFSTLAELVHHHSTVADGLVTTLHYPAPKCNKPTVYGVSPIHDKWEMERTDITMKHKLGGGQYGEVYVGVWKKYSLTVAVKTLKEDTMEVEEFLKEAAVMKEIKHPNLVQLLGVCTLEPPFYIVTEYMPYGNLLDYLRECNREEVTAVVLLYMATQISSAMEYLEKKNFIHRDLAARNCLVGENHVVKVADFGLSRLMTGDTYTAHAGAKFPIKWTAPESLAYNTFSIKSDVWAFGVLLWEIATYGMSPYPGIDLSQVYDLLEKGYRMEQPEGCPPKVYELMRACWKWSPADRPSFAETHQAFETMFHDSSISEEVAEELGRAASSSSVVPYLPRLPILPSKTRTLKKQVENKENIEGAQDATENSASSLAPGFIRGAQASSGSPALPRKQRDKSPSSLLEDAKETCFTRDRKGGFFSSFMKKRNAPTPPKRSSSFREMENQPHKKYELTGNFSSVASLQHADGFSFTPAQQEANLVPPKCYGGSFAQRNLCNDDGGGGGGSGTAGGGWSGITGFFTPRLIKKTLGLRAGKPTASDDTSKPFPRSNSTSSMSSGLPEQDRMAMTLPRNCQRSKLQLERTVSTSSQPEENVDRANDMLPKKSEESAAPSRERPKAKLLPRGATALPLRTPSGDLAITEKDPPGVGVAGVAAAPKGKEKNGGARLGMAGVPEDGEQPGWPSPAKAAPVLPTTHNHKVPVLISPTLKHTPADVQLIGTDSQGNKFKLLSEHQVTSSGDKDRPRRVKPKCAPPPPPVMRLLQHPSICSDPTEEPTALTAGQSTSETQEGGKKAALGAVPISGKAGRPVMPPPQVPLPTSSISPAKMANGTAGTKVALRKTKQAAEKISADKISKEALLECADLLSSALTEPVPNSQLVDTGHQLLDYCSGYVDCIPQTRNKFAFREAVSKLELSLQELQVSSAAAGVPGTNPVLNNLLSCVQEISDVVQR

[6] = target: Casein kinase I isoform gamma-1 (Homo sapiens) (UniProt Q9HCP0); assay: Selectivity interaction (ProQinase) EUB0000171b CSNK1G1
Chain of Casein kinase I isoform gamma-1 (Homo sapiens) (Q9HCP0 whole entry, looked up, canonical isoform): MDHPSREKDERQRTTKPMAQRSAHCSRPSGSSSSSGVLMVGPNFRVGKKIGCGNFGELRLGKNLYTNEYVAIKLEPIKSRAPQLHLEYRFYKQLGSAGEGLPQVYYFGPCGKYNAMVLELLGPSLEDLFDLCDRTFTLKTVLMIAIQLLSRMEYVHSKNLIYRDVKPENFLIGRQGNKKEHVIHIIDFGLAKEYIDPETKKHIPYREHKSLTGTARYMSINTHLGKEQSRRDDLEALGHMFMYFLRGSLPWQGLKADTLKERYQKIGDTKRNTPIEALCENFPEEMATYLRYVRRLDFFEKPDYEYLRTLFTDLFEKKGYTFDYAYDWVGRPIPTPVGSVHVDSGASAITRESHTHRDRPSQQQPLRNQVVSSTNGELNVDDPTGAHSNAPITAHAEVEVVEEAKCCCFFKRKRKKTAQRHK

[7] = target: T2, Ephrin type-B receptor 2 (Homo sapiens) (UniProt P29323); assay: Selectivity interaction (KinomeScan (DiscoverX)) EUB0000655a EPHB2; conditions: at 10 µM
T2 sequence (whole entry): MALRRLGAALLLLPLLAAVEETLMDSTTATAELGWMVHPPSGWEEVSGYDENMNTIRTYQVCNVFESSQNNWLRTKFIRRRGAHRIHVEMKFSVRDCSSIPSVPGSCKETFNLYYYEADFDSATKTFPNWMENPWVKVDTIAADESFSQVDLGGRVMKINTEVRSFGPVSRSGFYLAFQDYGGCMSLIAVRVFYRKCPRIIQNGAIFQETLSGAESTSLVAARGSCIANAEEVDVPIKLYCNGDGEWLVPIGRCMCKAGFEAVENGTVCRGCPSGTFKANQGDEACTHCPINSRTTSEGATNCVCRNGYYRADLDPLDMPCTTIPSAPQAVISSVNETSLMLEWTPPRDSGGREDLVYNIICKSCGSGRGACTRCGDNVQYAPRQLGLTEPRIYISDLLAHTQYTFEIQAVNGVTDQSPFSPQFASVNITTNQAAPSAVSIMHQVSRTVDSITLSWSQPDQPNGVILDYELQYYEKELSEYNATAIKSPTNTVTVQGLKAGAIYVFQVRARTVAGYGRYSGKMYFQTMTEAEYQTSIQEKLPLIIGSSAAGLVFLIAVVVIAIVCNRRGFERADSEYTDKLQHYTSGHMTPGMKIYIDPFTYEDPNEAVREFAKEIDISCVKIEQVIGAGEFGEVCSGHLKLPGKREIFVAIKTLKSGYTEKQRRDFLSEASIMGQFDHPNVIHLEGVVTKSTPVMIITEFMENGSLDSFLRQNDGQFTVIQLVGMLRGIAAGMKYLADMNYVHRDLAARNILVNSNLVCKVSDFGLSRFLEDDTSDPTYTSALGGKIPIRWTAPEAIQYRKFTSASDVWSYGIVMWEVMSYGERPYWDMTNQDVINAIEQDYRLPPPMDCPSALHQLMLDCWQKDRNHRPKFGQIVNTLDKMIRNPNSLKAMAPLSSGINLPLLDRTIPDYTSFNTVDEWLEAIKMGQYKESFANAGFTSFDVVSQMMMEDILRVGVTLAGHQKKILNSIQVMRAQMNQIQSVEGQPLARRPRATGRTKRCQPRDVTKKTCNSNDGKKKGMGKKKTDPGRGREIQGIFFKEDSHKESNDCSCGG

Chain of Epidermal growth factor receptor (P00533 whole entry): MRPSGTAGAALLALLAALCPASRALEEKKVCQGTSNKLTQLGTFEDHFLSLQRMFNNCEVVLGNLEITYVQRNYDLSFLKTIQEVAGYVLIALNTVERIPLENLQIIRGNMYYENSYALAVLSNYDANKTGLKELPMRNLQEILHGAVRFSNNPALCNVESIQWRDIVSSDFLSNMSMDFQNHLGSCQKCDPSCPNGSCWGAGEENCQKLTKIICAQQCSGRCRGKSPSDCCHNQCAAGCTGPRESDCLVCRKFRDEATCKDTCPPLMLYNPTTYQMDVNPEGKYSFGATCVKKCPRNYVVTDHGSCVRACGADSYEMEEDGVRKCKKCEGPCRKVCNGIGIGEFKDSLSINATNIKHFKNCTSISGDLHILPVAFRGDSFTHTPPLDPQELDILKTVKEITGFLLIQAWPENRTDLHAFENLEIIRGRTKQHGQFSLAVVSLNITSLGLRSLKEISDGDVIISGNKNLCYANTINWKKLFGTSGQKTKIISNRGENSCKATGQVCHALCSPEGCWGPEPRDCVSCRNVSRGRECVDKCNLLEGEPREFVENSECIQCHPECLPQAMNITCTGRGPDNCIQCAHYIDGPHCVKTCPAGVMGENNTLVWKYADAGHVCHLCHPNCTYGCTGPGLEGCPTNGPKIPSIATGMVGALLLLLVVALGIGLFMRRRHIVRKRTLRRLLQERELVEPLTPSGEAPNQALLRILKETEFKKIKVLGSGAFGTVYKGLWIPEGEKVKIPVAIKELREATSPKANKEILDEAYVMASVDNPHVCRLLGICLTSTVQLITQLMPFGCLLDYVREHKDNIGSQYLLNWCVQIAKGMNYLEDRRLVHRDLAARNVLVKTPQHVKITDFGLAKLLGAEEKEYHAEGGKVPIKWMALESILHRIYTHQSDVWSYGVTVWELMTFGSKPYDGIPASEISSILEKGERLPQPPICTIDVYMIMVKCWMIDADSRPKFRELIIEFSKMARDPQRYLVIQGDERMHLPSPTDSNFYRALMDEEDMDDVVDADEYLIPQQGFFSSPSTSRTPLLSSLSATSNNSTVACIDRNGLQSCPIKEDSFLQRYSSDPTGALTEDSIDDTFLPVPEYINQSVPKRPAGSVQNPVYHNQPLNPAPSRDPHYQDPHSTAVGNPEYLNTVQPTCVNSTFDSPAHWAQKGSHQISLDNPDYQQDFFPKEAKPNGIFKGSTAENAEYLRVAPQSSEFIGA

IC50 [1]: > 10 µM
SMILES: CCc1cc(Nc2nccc(-c3c(-c4ccc(OC)c(C(=O)Nc5c(F)cccc5F)c4)nc4ccccn34)n2)c(OC)cc1N1CCC(N2CCN(S(C)(=O)=O)CC2)CC1

SMILES: CN(C)C/C=C/C(=O)Nc1ccc(C(=O)N2CCCC(Nc3ncc(Cl)c(-c4c[nH]c5ccccc45)n3)C2)cc1 (centres undefined)
% of control [2]: 83%

% activity ([3]; at 1 µM): > 90%
% activity ([3]; at 10 µM): > 80%
SMILES: Cc1cc(CN)cc(C)c1-c1ncn(C)c1-c1cncn1C

% of inhibition [4]: -38.3%
SMILES: Cn1cc(-n2cnc3c(NCc4nc5cc(Cl)c(Cl)cc5[nH]4)nc(N4CCOCC4)nc32)cn1

% of control [5]: 100%
SMILES: CCN(CC)CCCCNc1ncc2cc(-c3cc(OC)cc(OC)c3)c(NC(=O)NC(C)(C)C)nc2n1

% of control ([6]; at 1 µM): 65%
% of control ([6]; at 5 µM): 31%
SMILES: C=CC(=O)Nc1cccc(C(=O)Nc2ccc(Nc3cc(-c4[nH]c(SC)nc4C)ccn3)cc2)c1

SMILES: CN(C)CCOc1ccc(-c2nc(-c3ccncc3)c(-c3ccc4c(c3)CC/C4=N\O)[nH]2)cc1
% of control [7]: 98%
